Reference: ChEMBL document CHEMBL1201862, “PubChem BioAssay data set” (2004)
The source made the active and inactive calls. Where a SMILES comes first, the peptide text is derived from it. The star is where a group is joined. Boc = CC(C)(C)OC(=O)*; Bn = c1ccc(C*)cc1; NHNH2 = NN*

How the values were obtained:
[1] = target: T1, Aminopeptidase N (Plasmodium falciparum FcB1/Columbia, UniProt O96935); test: P. falciparum M1AAP inhibitors, biochemical, fluorogenic H-Leu-NHMec substrate, 1536-well (AID 1445); parameters: species or system Plasmodium falciparum 3D7, 3D7
T1 sequence (O96935 whole entry): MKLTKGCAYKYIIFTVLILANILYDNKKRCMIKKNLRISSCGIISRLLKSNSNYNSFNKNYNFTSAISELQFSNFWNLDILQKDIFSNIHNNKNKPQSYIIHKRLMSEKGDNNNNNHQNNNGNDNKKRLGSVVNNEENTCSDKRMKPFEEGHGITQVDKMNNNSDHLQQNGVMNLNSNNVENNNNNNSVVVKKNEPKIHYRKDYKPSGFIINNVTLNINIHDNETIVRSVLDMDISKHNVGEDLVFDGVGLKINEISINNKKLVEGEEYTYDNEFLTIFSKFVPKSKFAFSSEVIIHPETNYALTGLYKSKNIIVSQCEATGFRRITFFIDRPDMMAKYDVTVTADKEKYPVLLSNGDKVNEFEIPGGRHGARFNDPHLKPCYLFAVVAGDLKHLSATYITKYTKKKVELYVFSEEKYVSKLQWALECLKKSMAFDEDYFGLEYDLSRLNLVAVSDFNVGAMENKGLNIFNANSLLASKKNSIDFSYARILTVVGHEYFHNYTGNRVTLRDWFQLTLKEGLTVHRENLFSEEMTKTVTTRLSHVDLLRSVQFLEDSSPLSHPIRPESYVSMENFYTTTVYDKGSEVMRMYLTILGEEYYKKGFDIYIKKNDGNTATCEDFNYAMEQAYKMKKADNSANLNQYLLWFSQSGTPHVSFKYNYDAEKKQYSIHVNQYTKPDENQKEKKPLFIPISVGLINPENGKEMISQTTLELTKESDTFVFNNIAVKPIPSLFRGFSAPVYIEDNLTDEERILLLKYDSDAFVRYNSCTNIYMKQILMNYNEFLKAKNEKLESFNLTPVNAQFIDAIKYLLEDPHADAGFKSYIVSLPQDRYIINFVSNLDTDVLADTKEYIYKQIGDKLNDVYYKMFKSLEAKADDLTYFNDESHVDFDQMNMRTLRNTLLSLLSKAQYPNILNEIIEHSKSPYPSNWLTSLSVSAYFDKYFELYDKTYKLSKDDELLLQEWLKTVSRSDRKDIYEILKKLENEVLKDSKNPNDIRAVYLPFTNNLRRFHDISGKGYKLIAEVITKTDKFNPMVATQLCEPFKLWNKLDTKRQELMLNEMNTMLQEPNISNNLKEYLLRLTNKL

[2] = target: T2, Protein RecA (Mycobacterium tuberculosis, UniProt P9WHJ3); test: Fluorescence Cell-Free Homogeneous Dose Retest to Identify Inhibitors of RecA-Intein Splicing Activity. [Related pubchem assays (depositor defined):AID2097, AID2223, AID489010, AID492950]; type: functional
T2 sequence (P9WHJ3 whole entry): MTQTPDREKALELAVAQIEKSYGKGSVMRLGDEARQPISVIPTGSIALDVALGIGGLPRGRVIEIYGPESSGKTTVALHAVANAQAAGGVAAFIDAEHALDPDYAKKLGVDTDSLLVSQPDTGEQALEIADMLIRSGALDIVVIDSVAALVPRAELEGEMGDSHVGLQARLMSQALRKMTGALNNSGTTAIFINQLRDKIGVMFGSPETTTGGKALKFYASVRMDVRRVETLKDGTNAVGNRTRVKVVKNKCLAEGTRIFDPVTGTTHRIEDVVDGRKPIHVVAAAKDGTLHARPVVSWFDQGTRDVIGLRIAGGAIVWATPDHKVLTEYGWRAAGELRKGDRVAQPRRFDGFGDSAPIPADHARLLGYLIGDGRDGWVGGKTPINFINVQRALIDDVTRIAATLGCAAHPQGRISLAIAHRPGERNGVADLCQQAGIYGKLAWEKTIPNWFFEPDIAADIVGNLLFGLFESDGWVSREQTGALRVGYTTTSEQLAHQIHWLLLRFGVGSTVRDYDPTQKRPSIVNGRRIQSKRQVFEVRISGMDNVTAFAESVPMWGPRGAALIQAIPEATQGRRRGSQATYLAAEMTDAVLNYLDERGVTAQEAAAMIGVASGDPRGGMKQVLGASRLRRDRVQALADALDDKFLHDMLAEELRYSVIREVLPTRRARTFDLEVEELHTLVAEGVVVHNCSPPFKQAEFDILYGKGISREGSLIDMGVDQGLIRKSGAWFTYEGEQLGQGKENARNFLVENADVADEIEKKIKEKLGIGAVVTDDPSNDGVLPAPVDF

[3] = target: T3, Voltage-gated N-type calcium channel alpha-1B subunit/Amyloid beta A4 precursor protein-binding family A member 1 (Homo sapiens, UniProt Q00975+Q02410); type: protein assay
[4] = target: T3, Voltage-gated N-type calcium channel alpha-1B subunit/Amyloid beta A4 precursor protein-binding family A member 1; type: protein assay; remark: listed apart in the source
[5] = target: T4, Replicative DNA helicase DnaB (Mycobacterium tuberculosis, UniProt P9WMR3); test: DnaB intein splicing inhibitors, dose response, biochemical, cell-free fluorescence (AID 449749); type: functional
T4 sequence (P9WMR3 whole entry): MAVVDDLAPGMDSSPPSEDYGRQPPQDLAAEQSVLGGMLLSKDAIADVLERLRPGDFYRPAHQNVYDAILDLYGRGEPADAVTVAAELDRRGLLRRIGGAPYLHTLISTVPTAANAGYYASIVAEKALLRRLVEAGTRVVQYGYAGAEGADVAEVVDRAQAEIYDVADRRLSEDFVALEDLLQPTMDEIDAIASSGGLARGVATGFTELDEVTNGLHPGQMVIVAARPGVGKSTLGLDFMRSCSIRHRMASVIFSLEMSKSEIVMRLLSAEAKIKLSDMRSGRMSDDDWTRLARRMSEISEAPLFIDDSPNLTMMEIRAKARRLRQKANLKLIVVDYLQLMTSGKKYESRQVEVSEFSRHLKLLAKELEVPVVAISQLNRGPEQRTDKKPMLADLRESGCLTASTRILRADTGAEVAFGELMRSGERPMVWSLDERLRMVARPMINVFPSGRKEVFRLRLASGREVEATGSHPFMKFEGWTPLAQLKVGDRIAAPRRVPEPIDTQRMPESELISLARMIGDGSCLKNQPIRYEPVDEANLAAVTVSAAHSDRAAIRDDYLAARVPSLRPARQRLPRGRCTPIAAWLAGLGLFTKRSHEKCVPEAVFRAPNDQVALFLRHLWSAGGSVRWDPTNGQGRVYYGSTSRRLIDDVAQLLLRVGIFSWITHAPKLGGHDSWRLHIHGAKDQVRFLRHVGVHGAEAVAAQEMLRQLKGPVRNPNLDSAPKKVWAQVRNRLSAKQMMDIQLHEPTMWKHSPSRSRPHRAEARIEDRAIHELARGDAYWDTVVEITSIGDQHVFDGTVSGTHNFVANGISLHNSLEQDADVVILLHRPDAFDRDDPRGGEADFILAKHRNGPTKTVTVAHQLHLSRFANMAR

[6] = growth suppression of PTEN-null colon cells, dose response, cell-based, HCT116 PTEN knockout (AID 1047); type: functional;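 further: HCT116 colon tumor cells with PTEN knocked out; cells exposed to compound for 60 hours before readout; potency for loss of cell viability measured by luminescence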
[7] = test system: HEK293; test: cells; type: functional, cell-based; conditions: Homo sapiens
[8] = test system: HEK293; test: NOD1 signaling inhibitors, primary screen, cell-based, luminescence, uHTS (AID 1578); type: functional; conditions: Homo sapiens
[9] = test system: HEK293; test: inhibitors of LMP1-driven NF-kB reporter, dose response, cell-based, HEK293, luciferase, cherry-pick (AID 588343); type: functional; conditions: Homo sapiens
[10] = inhibitors of intracellular T. cruzi replication, confirmation, NIH3T3 host cells, beta-gal luminescence (AID 2044); type: functional, cell-based;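 further: intracellular parasites grown in NIH/3T3 mouse fibroblasts as host cells; luminescent beta-galactosidase reporter signal from transgenic T. cruzi replicating inside host cells; inhibitors lower the luminescence signal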
[11] = test system: HEK293; test: cells; type: functional, cell-based; conditions: Homo sapiens; remark: listed apart in the source
[12] = cytotoxicity toward NIH3T3 fibroblasts, dose response, counter-screen, cell-based, ATP luminescence, mouse fibroblasts (AID 2010); type: functional;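 further: cells exposed to compound for about 90 hours before reading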
[13] = growth suppression of beta-catenin-knockout colon cells, dose response, cell-based, HCT116, human colon tumor (AID 1045); type: functional;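 further: HCT116 colon tumor cells with beta catenin knocked out; cells exposed to compound for 60 hours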
[14] = test system: HEK293; test: NOD2 signaling inhibitors in MDP-stimulated cells, cell-based, uHTS, luminescence (AID 2001); type: functional; conditions: Homo sapiens
[15] = target: T5, Polyadenylate-binding protein 1 (Homo sapiens, UniProt P11940); test: PABP1 MLLE–PAM2 interaction inhibitors, dose response, miRNA deadenylation inhibitor project, biochemical, fluorescence polarization, Cy5-PAM2 peptide, secondary (AID 602260); type: functional; conditions: read-out: IC50_Mean
[16] = target: Large T antigen (Simian virus 40, UniProt P03070); type: functional, Betapolyomavirus macacae;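 further: Confirmatory-stage PubChem screen for compounds that inhibit SV40 T antigen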
[17] = target: T5, Polyadenylate-binding protein 1; test: PABP1 MLLE–PAM2 binding inhibitor potency, dose response, biochemical, fluorescence polarization, FITC-PAM2 peptide (AID 602259); type: functional; conditions: read-out: IC50_Mean
[18] = target: FAD-linked sulfhydryl oxidase ALR (Homo sapiens, UniProt P55789); test: inhibitors of human ALR sulfhydryl oxidase, dose response, biochemical, H2O2 detection, luminescence, cherry-pick (AID 493248)
[19] = target: Induced myeloid leukemia cell differentiation protein Mcl-1 (Homo sapiens, UniProt Q07820); type: functional
[20] = cytotoxicity in HEK-293T cells, dose response, cytotoxicity control for BCR NF-kB inhibitor project, luminescence, B-cell screen hits (AID 489021); type: functional, cell-based;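 further: HEK-293T cells carrying an NF-kB luciferase reporter; cells exposed to compound for about 14 hours before viability readout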

T3 sequence (Q00975 whole entry): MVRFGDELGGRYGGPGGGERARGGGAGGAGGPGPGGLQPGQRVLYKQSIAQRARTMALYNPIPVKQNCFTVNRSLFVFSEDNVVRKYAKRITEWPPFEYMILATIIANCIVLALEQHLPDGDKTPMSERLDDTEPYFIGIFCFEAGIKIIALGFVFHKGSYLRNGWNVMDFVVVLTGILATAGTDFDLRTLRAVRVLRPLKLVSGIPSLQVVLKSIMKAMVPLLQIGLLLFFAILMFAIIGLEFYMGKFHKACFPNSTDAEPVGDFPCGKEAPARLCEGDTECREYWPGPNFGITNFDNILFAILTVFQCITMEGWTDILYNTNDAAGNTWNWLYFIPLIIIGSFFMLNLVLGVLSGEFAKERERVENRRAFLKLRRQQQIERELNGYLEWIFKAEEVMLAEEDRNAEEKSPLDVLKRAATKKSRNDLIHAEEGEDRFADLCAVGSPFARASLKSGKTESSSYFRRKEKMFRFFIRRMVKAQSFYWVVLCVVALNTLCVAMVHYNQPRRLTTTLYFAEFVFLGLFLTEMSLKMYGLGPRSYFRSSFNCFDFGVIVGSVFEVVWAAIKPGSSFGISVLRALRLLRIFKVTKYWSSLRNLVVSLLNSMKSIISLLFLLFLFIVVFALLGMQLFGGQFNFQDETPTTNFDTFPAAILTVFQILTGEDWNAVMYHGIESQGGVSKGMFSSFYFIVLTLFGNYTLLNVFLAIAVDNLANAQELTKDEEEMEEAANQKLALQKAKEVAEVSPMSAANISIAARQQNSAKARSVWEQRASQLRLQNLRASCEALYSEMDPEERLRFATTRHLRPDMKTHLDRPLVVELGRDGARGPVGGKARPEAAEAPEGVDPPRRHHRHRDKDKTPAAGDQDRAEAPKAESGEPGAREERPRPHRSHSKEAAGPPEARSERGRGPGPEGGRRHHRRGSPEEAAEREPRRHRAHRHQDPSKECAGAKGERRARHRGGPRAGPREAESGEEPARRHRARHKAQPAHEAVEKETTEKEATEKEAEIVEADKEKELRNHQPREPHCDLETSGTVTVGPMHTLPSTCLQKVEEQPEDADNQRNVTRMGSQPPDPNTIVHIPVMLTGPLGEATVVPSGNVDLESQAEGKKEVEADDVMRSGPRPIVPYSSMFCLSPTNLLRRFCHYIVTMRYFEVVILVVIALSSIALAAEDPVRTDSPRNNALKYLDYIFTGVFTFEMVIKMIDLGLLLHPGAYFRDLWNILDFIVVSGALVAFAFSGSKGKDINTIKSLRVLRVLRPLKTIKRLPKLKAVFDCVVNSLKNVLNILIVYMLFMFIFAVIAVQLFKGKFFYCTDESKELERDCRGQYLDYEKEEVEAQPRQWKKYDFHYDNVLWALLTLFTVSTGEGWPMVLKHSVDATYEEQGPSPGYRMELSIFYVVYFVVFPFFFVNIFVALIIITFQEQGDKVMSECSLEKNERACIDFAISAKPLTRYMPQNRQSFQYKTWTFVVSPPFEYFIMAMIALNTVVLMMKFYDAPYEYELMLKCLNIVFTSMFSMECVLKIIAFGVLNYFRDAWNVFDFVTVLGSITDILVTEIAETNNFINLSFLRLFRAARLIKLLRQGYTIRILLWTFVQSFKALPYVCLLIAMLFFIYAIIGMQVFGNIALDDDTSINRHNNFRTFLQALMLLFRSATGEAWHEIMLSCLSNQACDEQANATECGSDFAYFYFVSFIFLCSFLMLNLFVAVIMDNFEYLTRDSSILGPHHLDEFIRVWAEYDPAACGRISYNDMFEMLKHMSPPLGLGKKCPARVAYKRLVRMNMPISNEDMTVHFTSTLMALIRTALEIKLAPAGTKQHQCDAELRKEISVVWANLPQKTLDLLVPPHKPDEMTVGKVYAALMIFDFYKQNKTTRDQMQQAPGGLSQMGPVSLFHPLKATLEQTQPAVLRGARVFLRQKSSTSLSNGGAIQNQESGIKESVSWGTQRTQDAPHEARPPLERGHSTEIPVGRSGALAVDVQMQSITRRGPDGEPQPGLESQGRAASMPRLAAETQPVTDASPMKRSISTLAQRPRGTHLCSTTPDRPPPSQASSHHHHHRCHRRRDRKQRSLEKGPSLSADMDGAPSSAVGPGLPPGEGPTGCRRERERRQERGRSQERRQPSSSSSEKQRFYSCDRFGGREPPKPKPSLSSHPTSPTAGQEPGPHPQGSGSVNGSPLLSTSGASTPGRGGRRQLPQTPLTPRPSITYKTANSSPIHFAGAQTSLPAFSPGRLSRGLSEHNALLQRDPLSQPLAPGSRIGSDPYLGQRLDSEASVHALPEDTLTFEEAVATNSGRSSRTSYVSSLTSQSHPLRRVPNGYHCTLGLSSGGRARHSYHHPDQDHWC
T3 sequence (Q02410 whole entry): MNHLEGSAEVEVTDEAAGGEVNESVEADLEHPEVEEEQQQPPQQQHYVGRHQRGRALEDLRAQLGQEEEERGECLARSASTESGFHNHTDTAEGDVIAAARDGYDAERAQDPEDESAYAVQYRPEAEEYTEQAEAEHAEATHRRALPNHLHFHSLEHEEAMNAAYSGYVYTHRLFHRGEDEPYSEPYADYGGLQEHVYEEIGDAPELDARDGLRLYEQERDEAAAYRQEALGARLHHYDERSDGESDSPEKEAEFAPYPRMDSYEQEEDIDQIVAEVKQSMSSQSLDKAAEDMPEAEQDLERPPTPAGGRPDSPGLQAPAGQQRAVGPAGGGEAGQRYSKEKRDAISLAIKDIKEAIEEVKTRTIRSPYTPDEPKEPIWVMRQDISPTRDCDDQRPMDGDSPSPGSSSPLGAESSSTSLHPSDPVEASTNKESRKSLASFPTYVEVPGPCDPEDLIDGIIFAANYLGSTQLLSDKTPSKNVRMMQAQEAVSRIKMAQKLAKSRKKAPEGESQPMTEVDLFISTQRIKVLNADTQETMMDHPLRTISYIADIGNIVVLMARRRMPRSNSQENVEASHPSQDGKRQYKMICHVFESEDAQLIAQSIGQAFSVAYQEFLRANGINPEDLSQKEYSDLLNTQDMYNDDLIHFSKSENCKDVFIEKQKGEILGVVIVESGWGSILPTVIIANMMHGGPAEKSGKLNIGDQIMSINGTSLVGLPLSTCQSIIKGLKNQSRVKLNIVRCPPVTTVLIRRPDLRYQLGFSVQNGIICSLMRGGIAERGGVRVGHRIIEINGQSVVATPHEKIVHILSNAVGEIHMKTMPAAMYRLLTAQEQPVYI
T5 sequence (P11940 whole entry): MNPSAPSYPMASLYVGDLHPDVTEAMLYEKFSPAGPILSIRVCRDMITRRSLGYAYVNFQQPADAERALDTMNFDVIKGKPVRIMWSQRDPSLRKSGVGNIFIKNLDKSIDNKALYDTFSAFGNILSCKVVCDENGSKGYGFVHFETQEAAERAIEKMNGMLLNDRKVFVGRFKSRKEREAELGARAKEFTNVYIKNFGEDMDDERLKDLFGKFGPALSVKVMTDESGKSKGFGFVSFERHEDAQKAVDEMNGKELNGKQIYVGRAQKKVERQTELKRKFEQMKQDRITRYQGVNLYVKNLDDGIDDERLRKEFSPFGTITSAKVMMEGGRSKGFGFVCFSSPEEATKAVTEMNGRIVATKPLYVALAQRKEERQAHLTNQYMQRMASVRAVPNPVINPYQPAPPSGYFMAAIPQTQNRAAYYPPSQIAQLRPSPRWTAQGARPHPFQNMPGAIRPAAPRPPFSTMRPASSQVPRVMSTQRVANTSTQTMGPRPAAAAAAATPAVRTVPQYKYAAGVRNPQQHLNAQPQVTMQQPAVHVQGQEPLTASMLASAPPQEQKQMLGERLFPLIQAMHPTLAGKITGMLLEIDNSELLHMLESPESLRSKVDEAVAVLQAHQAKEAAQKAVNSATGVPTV
Chain of Induced myeloid leukemia cell differentiation protein Mcl-1 (Q07820 whole entry): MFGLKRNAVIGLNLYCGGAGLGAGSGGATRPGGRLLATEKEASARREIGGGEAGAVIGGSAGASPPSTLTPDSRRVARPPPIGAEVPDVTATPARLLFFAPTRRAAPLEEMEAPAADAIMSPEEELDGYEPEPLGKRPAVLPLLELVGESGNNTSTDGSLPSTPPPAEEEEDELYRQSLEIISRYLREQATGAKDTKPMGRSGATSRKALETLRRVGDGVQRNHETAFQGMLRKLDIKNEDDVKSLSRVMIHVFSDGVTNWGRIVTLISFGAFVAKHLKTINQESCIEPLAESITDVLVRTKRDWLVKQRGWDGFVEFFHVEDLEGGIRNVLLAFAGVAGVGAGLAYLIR
Chain of Large T antigen (P03070 whole entry): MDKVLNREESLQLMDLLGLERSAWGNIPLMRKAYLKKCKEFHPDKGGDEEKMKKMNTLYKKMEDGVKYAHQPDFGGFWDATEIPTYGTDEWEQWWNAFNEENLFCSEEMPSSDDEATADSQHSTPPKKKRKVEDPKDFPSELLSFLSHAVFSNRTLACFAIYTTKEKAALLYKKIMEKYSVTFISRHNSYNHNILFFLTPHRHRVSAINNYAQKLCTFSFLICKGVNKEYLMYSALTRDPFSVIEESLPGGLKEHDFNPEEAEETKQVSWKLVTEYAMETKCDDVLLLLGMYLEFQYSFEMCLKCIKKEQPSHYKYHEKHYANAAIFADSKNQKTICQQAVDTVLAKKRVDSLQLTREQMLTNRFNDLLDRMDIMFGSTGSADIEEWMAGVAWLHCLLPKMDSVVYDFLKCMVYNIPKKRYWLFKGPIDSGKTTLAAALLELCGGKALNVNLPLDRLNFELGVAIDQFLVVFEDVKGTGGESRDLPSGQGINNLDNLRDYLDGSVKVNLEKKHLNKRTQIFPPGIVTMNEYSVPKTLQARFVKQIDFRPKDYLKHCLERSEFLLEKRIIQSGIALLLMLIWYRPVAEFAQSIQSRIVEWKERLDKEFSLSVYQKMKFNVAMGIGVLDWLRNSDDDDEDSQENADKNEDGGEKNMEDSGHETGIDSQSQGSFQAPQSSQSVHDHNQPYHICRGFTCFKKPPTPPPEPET
Chain of FAD-linked sulfhydryl oxidase ALR (P55789 whole entry): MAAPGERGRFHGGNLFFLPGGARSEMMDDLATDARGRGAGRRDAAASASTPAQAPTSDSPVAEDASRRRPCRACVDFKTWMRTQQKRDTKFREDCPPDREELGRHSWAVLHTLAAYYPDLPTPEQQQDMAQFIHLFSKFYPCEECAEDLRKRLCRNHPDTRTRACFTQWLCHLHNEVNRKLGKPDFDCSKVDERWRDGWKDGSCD

CC(C)CC(NC(=O)C(COCc1ccccc1)NC(=O)OC(C)(C)C)C(=O)NN (configuration not stated) (Boc-Ser(Bn)-Leu-NHNH2; configuration not given here)
IC50 [1]: 81.4 µM (active)

N#Cc1c(C#N)c(O)c2ccccc2c1O
EC50 [2]: 1.55 µM (active) | IC50 [3]: 25.8 µM (active) | IC50 [4]: 3.83 µM (active) | AC50 [5]: > 380 µM (inactive)

COc1ccc(/C=N/NC(=O)c2cccc(NC(=O)c3ccccc3Cl)c2)cc1OC
IC50 [1]: 53.9 µM (active)

CC(=O)Nc1nc(C)c(-c2csc(Nc3cccc([N+](=O)[O-])c3)n2)s1
EC50 [6]: 18.2 µM (active) | IC50 [7]: 17.1 µM (active) | EC50 [8]: 9.4 µM (active) | AC50 [9]: 2.16 µM (active) | EC50 [10]: 0.995 µM (active) | IC50 [11]: 11.1 µM (active) | EC50 [12]: 14.1 µM (active) | EC50 [13]: 24.8 µM (active) | IC50 [14]: 8.61 µM (active)

N#CC1=C(N)N=C(S)C(C(N)=O)C1c1ccccc1F (configuration not stated)
IC50 [15]: > 66 µM (inactive) | IC50 [3]: > 50 µM (inactive) | IC50 [4]: 13.6 µM (active) | IC50 [16]: 60 µM (active) | IC50 [17]: > 66 µM (inactive) | AC50 [18]: 8.62 µM (active)

Cc1ccc2nc(O)c(C3=NN(C(=O)CCC(=O)O)C(c4cccs4)C3)c(-c3ccccc3)c2c1 (configuration not stated)
IC50 [1]: 68.9 µM (active)

O=[N+]([O-])c1ccc(-c2cc(-c3ccc(Cl)cc3)n[nH]2)cc1
IC50 [3]: > 50 µM (inactive) | IC50 [4]: > 56.8 µM (not active) | IC50 [19]: 2.5 µM (active)

COc1ccc(/C=C(\CC(=O)O)c2nc3ccccc3o2)cc1
IC50 [1]: 81.5 µM (active)

COc1ccc(/C=C2/SC(=S)N(CCC(=O)O)C2=O)cc1
IC50 [20]: > 80 µM (inactive)
